The results in this text go back to US4766122A, “Cyanoamidine compounds and derivatives thereof” (Smith Kline & French Laboratories Limited, priority 1985, dated 1988).

The term IC50 denotes the midpoint of a concentration-inhibition curve. The term Km denotes the substrate concentration at which the rate is half of its maximum.

Experiment [1] deals with left ventricular dp/dt max (left ventricular contractility). The experiment can be described thus: Cardiac stimulant activity in vivo: left ventricular dp/dt max in anaesthetised cats. Details: species or system cat. The settings on record: anaesthetised cats pretreated with pempidine and propranolol, intravenous.
Experiment [2] deals with guinea pig right ventricular strips. The experiment can be described thus: Cardiac stimulant activity in vitro: increase in force of contraction of electrically stimulated ventricular strips. Particulars: Cavia porcellus, read-out: EC50 (50% increase in the force of contraction of the ventricular strips); 37° C., stimulated at 1.0 Hz, cumulative concentration response. The method, then: The compounds of formula (I) and their pharmaceutically acceptable salts are tested for cardiac stimulant activity following a procedure based on that of S.C. Verma and J. H. McNeill (J. Pharm & Exp. Therapeutics, 200, 352-362 (1977)). Guinea pigs (500-700 g) of either sex are sacrificed and the hearts are quickly removed and transferred to a dissecting dish containing oxygenated bathing fluid. While in the bathing medium, the right ventricle is cut into two strips. The strips are each suspended in a 50 ml bath containing Krebs Henseleit solution at 37° C., and the bath is bubbled with 95% oxygen and 5% carbon dioxide. The ventricular strips are electrically stimulated at a frequency of 1.0 Hz, at double the threshold voltage. A resting tension of 1.0 g is applied to the strips and the tension is kept constant by readjustment during an equilibration period of 60 minutes. The bathing fluid is frequently changed during this period. When a steady base line is obtained, a compound under test is added to the bathing fluid and a cumulative concentration response curve is plotted.

Experiment [3] deals with PDE (Peak III). Put plainly: Inhibition of PDE (Peak III) from cat heart. Format: biochemical. The settings on record: read-out: IC50 (50% inhibition of PDE (Peak III) activity); 1 μM cyclic AMP, 37°, pH 7.5.
Description: (§1) There were three major peaks which had the following characteristics:
(§2) The enzyme was assayed by incubation at 37° for 4-30 min in 50 mM Tris, 5 mM MgCl2, pH 7.5 with [3-H]cyclic nucleotide (4×10^5 disintegrations min^-1) and [14-C]nucleotide 5' monophosphate (3×10^3 disintegrations min^-1). […] The reaction mixture was diluted with 0.5 ml 100 mM HEPES (N-2-Hydroxyethyl-piperazine-N'-2-ethanesulfonic acid), 100 mM NaCl, pH 8.5, and applied to the column. […] The recovery of product as judged by [14-C]recovery was approximately 80%. All assays were linear with time of incubation and concentration of enzyme over the range used in these experiments.
Experiment [4] has as its system PDE (Peak I). The experiment can be described thus: Substrate kinetics of PDE (Peak I) from cat heart. In kind it is biochemical.
In experiment [5] the test system is PDE (Peak II). Particulars: eluted at 0.3 M Na acetate.
Description: as §1, §2
The subject of experiment [6] is PDE (Peak III). Particulars: eluted at 0.5 M Na acetate.
Description: as §1, §2

The structures appear in SMILES notation.

Consider `Nc1cc(-c2ccncc2)c[nH]c1=O` [Amrinone], for which, in experiment [1], the duration of activity entry is reported as “short duration of activity”.
Turning to `CCC(=NC#N)Nc1ccc(C2=NNC(=O)CC2C)cc1` (centres unmarked) [Example 1, 6-[4-(N^2 -Cyanopropanimidamido)phenyl]-5-methyl-4,5-dihydro-3(2H)-pyridazinone], the EC50 in experiment [2] was 65 nM. Besides, the ED50 in experiment [1] (Felis catus, read-out: ED50 (dose to increase left ventricular dp/dt max by 50%)) was determined as 0.02 µmol/kg. Further, the duration of activity result in experiment [1] is given as “long duration of activity”. The IC50 in experiment [3] worked out at 80 nM.
`Nc1nc2c(ncn2[C@@H]2O[C@@H]3COP(=O)(O)O[C@H]3[C@H]2O)c(=O)[nH]1` [cyclic GMP]: the “Relative Vmax” value in experiment [4] (50 μg/ml calmodulin added) is given as 7.2; in experiment [4] (without 50 μg/ml calmodulin), 1.1; in experiment [5] it was 0.2; in experiment [6], 0.4. Besides, the Michaelis-Menten constant (Km) turned out to be 28 µM in experiment [5] and 2.9 µM in experiment [6].
